The subject of one series is DPSCs. The experiment in a line: Proliferation assay (Trypan Blue viable cell count). To be noted: 500 nM. The format is cell-based, human. The method, then: To ensure that BDL-E5 was not toxic to the cells, DPSCs were incubated with BDL-E5 (500 nM) for 48 h and 72 h and viable cells were counted in a haemocytometer using the Tryphan Blue method. DPSCs in which CREB1 was over-expressed or silenced were also counted at 72 h post nucleofection to determine if gene manipulation has affected the cell proliferation.

The subject of the next series is BJ human fibroblasts. Description: Staining of BJ fibroblasts reprogrammed with lentiviral Yamanaka factors. The format is cell-based. The text has this:
iPS cells were also generated from DPSCs with the traditional protocol involving retroviral vectors expressing OCT4, SOX2, KLF4, and C-MYC (Sugii, et al. (2011). Nature Protoc 6(3):346-358). BJ human neonatal fibroblasts were reprogrammed using lentiviral OCT4, SOX2, KLF4, and C-MYC as described previously (Toh, et al. (2016). Cell Rep 15(12):2597-2607).
We also tested whether BDL-E5 worked for commonly used reprogramming methods and cell type. DPSCs were infected with retroviral vectors expressing four Yamanaka factors, and plated onto MEF. […] In addition, BJ human fibroblasts were reprogrammed with lentiviral Yamanaka factors.

The subject of the next series is reprogramming DPSCs. Description: BDL-E5 live staining time course of episomally reprogrammed DPSCs on MG. Format: cell-based, human. The method, then: Episomal plasmids developed by Yamanaka's lab were obtained from Addgene: pCXLEhOct3/4-shp53-F (Addgene #27077), pCXLE-hSK (Addgene #27078), pCXLE-hUL (Addgene #27080) and pCXLE-EGFP (Addgene #27082) (Okita, et al. (2011). Nat Methods 8, 409-412). 1×10^6 cells were suspended together with 1 μg of each episomal vector in Nucleofector solution supplied in the Nucleofector Kit R (Lonza). Then the cells were transfected with the Program FF-113 on a Nucleofector 2b Device. The transfected cells were then cultured in ASC or DPSC medium (MSC medium) supplemented with 0.5 mM sodium butyrate, with daily media change. On Day 7 dpn, 1×10^5 viable cells were seeded over MEF feeders (GlobalStem) into one well of a 6-well plate for feeder-based iPS derivation; 2×10^5 viable cells were seeded for feeder-free iPS derivation into one well of a 6-well plate pre-coated with Matrigel (Corning). The next day, MSC medium was changed to feeder-based hES medium (DMEM/F12 supplemented with 20% knock out serum replacement, 1% GlutaMAX, 1% NEAA, Pen/Strep, 0.1 mM p-mercaptoethanol and 10 ng/ml b-FGF) or to feeder-free mTeSR1 (StemCell Technologies), supplemented with sodium butyrate. At 12 dpn, supplementation of sodium butyrate was stopped, and conditioned further with SMC4 cocktail (consisting of small molecules: PD0325901, CHIR99021, Thiazovivin, and SB431542 (FOCUS Biomolecules)) in hES medium/mTeSR1. This media supplement was continued until initial colony formation began.
Reprogrammed cells were immune-stained with fluorescent live cell stain TRA-1-60 (R&D Systems, GloLIVE NL557) as per manufacturer's instructions. After incubating with the live staining antibodies for 30 min and Hoechst 33342 for 10 min, cells were washed 3 times with PBS and images with the Cy5 and DAPI channels, respectively, were immediately captured.
Further experiments were carried out using BDL-E5. To determine whether BDL-E5 identifies the early stages of pluripotency, ASCs and DPSCs were reprogrammed using nucleofection of episomal vectors, and seeded onto MG-coated plates (feeder-free, viral-free reprogramming method). […]

The test system of series [1] is reprogrammed ASCs and DPSCs on microcarriers. Description: Fluorescent probe staining on Cytodex 3 microcarriers (3D culture). The format is cell-based, human. To be noted: 14 and 21 dpn. How it is done:
Reprogrammed monolayer ASCs and DPSCs were dissociated into single cell suspension using Dispase. Single cell suspension was transferred into a 6-well Suspension Culture Plate (Greiner bio-one) with Matrigel (Geltrex™, ThermoFisher)-coated Cytodex 3 microcarrier in 4 ml of mTeSR1 supplemented with 10 μM of Rock Inhibitor Y27632 (Calbiochem). The plate was placed on an orbital shaker (110 rpm) for at least 2 hours for cell attachment. Afterward, the plate was transferred to static condition and incubated at 37° C./5% CO2. Media change was carried out with mTeSR1 daily thereafter by aspirating […] of spent medium from the well and adding 4 ml of fresh media (80% medium exchange). On Day 7, the cells on microcarriers were supplemented and maintained with 4 ml of mTeSR1+SMC4 media. 80% medium change was carried out every day.
BDL-E5 probe staining of reprogrammed ASCs and DPSCs on microcarriers was carried out on Day 14 and 21 dpn. The microcarrier culture was washed twice with sterile D-PBS. Prior to staining, media was changed to mTeSR1 with 500 nM BDL-E5 probe and Alexa Fluor® 488 Mouse anti-human TRA-1-60 (200× dilution) (BD Pharmingen™). Cultures were incubated for 1 hour. The cells were then washed twice with D-PBS and replaced with mTeSR1 prior to imaging. Images were taken using Axio Observer Fluorescent Microscope (Carl Zeiss). […]

The nature of series [2]: Absorption and emission maxima of the probe. Format: physicochemical. The method, then:
The chemical properties of the BDL library are previously described (Jeong et al., 2015). BDL-E5 is based on 4,4-difluoro-4-bora-3a,4a-diaza-s-indacene (BODIPY), with calculated mass of 528.3 and absorption maximum/emission maximum of 578/599 nm. Primary, secondary and tertiary screening of fluorescent probes on AiPS, ASCs, DiPS and DPSCs were performed as described previously (Im, et al. (2010). Angew Chem Int Ed Engl 49, 7497-7500; Kang, et al. (2011). Nat Protoc 6, 1044-1052) and in the Results section. Unless described otherwise, BDL-E5 and CDy1 images were acquired by the Tetramethylrhodamine (TRITC) channel of ImageXpress Micro High-Content Imaging System, which had the Adaptive Background Correction function enabled.

Regarding `COc1cc(F)c(/C=C/c2cc(C)c3n2[B-](F)(F)[N+]2=C(CCC(=O)NCCN(C)C)C=CC2=C3)cc1OC` [BDL-E5], the toxicity to cells result with DPSCs was “not toxic”. In the series on BJ human fibroblasts, the “staining of reprogramming versus non-reprogramming cells” value was “successfully stained reprogramming, but not non-reprogramming cells” and the “staining strength compared with TRA-1-60” value is listed as “stronger than that of TRA-1-60”. Further, in the series on reprogramming DPSCs (iPS colonies formed from DPSCs), the “intensity of fluorescence of staining at 7, 14, 21, 28 dpn” value is “increased with increasing time”. The “fate of stained cells tracked in the same field of view until colony formation” value in the series with reprogramming DPSCs (reprogrammed DPSCs, staining every 48 h, 10-24 dpn) is given as “only cells staining positive for BDL-E5 formed iPS colonies”. The “time at which positive cells/colonies were found” value in the series on reprogramming DPSCs (reprogramming DPSCs, MG-coated plates, episomal feeder-free) is reported as 7 dpn. In series [1] (500 nM, 1 h), the “staining of reprogrammed cells on microcarriers” value is “clearly observed”. The “background staining of Cytodex 3 microcarriers themselves” value in series [1] is on record as “no background BDL-E5 staining”. Further, in series [2], the absorption maximum stood at 578 nm and the emission maximum is recorded as 599 nm.

For the origin of these results see patent US20230339983A1, “FLUORESCENT COMPOUNDS SPECIFIC FOR PLURIPOTENT STEM CELLS AND REPROGRAMMING-READY CELLS AND METHODS OF USING THE SAME” (Agency for Science, Technology and Research, priority 2018, published 2023).
